# Experimental data reported in PubChem BioAssay (NCI).
# “And” between values parts separate entries of the source, which are not always exact repeats. Equal entries are not always repeated.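 Compound exposure: 48 hours, 5 concentrations, 96-well plates. GI50 marks 50% less growth. TGI: total growth inhibition.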
# What was measured:
# Experiment in all cases: inhibition of tumour cell growth, NCI panel, 48 h
# [1] = system: 786-0 renal
# [2] = system: DU-145 prostate
# [3] = system: HCC-2998 colon
# [4] = system: HOP-62 NSCLC
# [5] = system: HS 578T breast
# [6] = system: OVCAR-4 ovarian
# [7] = system: T-47D breast
# [8] = system: TK-10 renal
# [9] = system: U251 CNS
# [10] = system: UACC-257 melanoma
Structure (SMILES),GI50 [1],TGI [1],GI50 [2],TGI [2],GI50 [3],TGI [3],GI50 [4],TGI [4],GI50 [5],TGI [5],GI50 [6],TGI [6],GI50 [7],TGI [7],GI50 [8],TGI [8],GI50 [9],TGI [9],GI50 [10],TGI [10]
Cc1n[nH]c(C)c1-c1c(C)n[nH]c1C,2.37 µM,6.42 µM,1.99 µM,4.13 µM,1.96 µM,3.82 µM,2.4 µM,9.11 µM,2.26 µM,16.9 µM,2.28 µM,6.38 µM,1.91 µM,7.09 µM,2.89 µM,7.2 µM,1.64 µM,3.76 µM,2.18 µM,5.68 µM
O=C1Nc2ccc(I)cc2/C1=C/c1cc(Br)c(O)c(Br)c1,> 24.1 µM and 18.2 µM,> 25 µM and 45.5 µM,> 23.8 µM and 25 µM,> 100 µM,24.5 µM and 16.3 µM,> 25 µM and 33.6 µM,> 25 µM and 21.9 µM,> 25 µM and 46.9 µM,> 17.9 µM and 21.3 µM,> 80.4 µM,24.8 µM and 23.3 µM,> 100 µM,> 18.5 µM and 15.4 µM,> 82.8 µM,> 25 µM and 31.1 µM,> 92.3 µM,> 24.1 µM and 15.1 µM,> 25 µM and 36.3 µM,> 20.7 µM and 16.5 µM,> 25 µM and 69.2 µM
